Source: US20140161891A1, “COMPOSITION OF PI3K INHIBITOR AND USE THEREOF” (priority 2012, published 2014)

Legend:
[1] = system: four types of lung cancer cell strains (AS2, H157, H460, H1650); assay: MTT cell activity test, four cell strains together; assay type: cell-based; conditions: 48 hours
Source text: To measure the ionized LY, PLAG nanoparticles (SF-NPs), and SF-LY NPs, PLGA NPs are applied to four selected types of lung cancer cell strains including AS2 (PTEN null), H157 (PI3KCA, PTEN null), H460 (PI3KCA) and H1650 (PTEN null) in this preferred embodiment, and different concentrations are used to process the ionized LY or SF-LY NPs and a MTT testing method is used to measure the cell activity, and the experiment procedure is described in details as follows:
The cells are inoculated in 96-hole culture boards (each hole has 5×10^3 cells) and cultured by 5% of CO2 at 37[…] till the next day. In four types of different cells, different doses of SF NPs, LY or SF-LY NPs are added and processed for 48 hours, and then a stock solution (with a content of 5 mg/ml in PBS) of a MTT agent at 37° C. is added to the 96-hole culture boards containing different processing drugs and wait for 4 fours before centrifuging the culture boards at 1200 rpm for 5 minutes, and after adding DMSO (capable of dissolving and precipitating products produced by the reaction of MTT and cells) for 5 minutes, the suspension is moved to a new ELISA board, and an ELISA reader (Varioskan, Thermo Electron) is used to measure the light absorption by 490 nm. […]

PC14PE6/AS2 cells tumor = assay: AS2 tumor model in nude mice, injection in the tumor; assay type: in vivo, Balb/c female nude mice; conditions: 1 mg/kg, injected in the tumor three times a week for two weeks
Experimental: Balb/c female nude mice were obtained from National Laboratory Animal Center, Taiwan. Mice of 6˜8 weeks old are used. The mice are randomly divided into four groups, and situated in the same environment with controlled tempeature, humidity and 12 h-light/dark cycle, and the controlled environmental conditions follows the environmental conditions for animal breeding set forth by National Cheng Kung University. The balb/c immunodeficient mice are innoculated with PC14PE6/AS2 cells (1×10^6 cells/1004 of PBS) by the subcutaneous inoculation method. If the tumor size is approximately equal to 50-60 cubic millimeters, the experiment starts taking place. […] The tumor size is measured by a caliper and a standard tumor volume measurement method (Volume=Long Axis×Short Axis^2×0.5). […]
After the procedure as shown in FIG. 5 takes place, the body weight of the mice is measured in every two other days to check whether there is a loss of weight. […] The survival rate is determined by the number of days when a natural death of each group of mice occurs or the tumor reaches a size of 4000 mm^3.

[2] = system: H157 (PI3KCA, PTEN null) lung cancer cell strain; assay: MTT cell activity test; assay type: cell-based; conditions: H157, higher dosage, 48 hours
Source text: To measure the ionized LY, PLAG nanoparticles (SF-NPs), and SF-LY NPs, PLGA NPs are applied to four selected types of lung cancer cell strains including AS2 (PTEN null), H157 (PI3KCA, PTEN null), H460 (PI3KCA) and H1650 (PTEN null) in this preferred embodiment, and different concentrations are used to process the ionized LY or SF-LY NPs and a MTT testing method is used to measure the cell activity, and the experiment procedure is described in details as follows: The cells are inoculated in 96-hole culture boards (each hole has 5×10^3 cells) and cultured by 5% of CO2 at 37[…] till the next day. In four types of different cells, different doses of SF NPs, LY or SF-LY NPs are added and processed for 48 hours, and then a stock solution (with a content of 5 mg/ml in PBS) of a MTT agent at 37° C. is added to the 96-hole culture boards containing different processing drugs and wait for 4 fours before centrifuging the culture boards at 1200 rpm for 5 minutes, and after adding DMSO (capable of dissolving and precipitating products produced by the reaction of MTT and cells) for 5 minutes, the suspension is moved to a new ELISA board, and an ELISA reader (Varioskan, Thermo Electron) is used to measure the light absorption by 490 nm.

## O=c1cc(N2CCOCC2)oc2c(-c3ccccc3)cccc12 [LY294002, 2-(4-Morpholinyl)-8-phenyl-4H-1-benzopyran-4-one]
[1]
  toxicity of the cells: slight toxicity
PC14PE6/AS2 cells tumor
  growth of tumors: insufficient to reduce the growth of tumors
PC14PE6/AS2 cells tumor; after 12˜14 days
  tumor size increase relative to start: approximately 40 times
[2]
  toxicity to H157 cells: slight toxicity
